Numbering of substitutions follows the chain as printed. Values joined by “and” are separate entries in the source; they are usually repeats but may differ in a detail not shown here. Identical values can stand only once. Like-named read-outs stand apart in the source and are kept apart here. Square brackets hold non-standard residues; d marks the D form. Peptide text beside a SMILES is read from it. pY = N[C@@H](Cc1ccc(OP(=O)(O)O)cc1)C(=O)O

Experimental findings from paper PMC3172300, “Modulation of Catalytic Activity in Multi-Domain Protein Tyrosine Phosphatases” (PLoS ONE, 2011) are described below.

For one experiment, the target named is T1, DLAR D1D2 (Drosophila melanogaster, UniProt P16621).
T1 construct: DLAR 1448-2029; His tag (pET-15b or pET-22b); made in house; host or cells: E. coli BL21(DE3)
T1 sequence (P16621 1448-2029): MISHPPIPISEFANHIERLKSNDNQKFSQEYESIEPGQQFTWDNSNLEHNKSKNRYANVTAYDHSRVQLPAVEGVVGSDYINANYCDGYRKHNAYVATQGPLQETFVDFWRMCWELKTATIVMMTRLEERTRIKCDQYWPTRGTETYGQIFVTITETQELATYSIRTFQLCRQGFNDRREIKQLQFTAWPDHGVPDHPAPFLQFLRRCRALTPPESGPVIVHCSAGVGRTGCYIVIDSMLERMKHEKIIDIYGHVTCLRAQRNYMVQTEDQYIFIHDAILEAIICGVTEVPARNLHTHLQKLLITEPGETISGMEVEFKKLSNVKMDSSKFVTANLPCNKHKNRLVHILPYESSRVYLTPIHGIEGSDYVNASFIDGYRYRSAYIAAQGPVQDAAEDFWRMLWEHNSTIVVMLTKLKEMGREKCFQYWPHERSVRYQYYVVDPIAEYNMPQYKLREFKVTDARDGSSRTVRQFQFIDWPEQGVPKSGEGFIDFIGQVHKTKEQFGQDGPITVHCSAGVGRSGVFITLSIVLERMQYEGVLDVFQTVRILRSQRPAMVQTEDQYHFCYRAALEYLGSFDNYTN
Description: Phosphatase assay using pNPP, DLAR D1D2. Type of experiment: biochemical. Particulars: 2 mM DTT. The method, then: Phosphatase activity of the recombinant PTP domains was determined by using para-Nitrophenylphosphate (pNPP), a small molecule generic substrate, as well as phosphotyrosine containing peptides. The pNPP assay was performed as reported previously, with a modification in the buffer composition (25 mM Citrate, Glycine and HEPES (CGH), pH 6.5, 100 mM NaCl and 2 mM DTT). Phosphatase activity with the phosphotyrosine peptides was ascertained by the malachite green reaction as described for PTPs previously. Briefly, the reaction mixture comprised of 0.01 µM protein incubated with increasing concentrations of different peptides in 25 mM citrate buffer pH 6.0, 100 mM NaCl and 2 mM DTT for 15 min at 25°C. The reaction was stopped by the addition of the Biomol Green reagent (Enzo Life Sciences) and the colour developed after 20 min was quantified at 650 nm. For all the assays, kinetic constants for the steady state catalysis were obtained by fitting the reaction curves to the Michaelis-Menten equation using the nonlinear regression module of Sigma plot software (Systat Software, Inc.).
The tandem PTP domains of PTP99A (PTP99A D1D2) and DLAR (DLAR D1D2) , the individual PTP domains (D1 and D2) as well as the active site mutants were expressed in E. coli and were purified using the protocols described earlier (Figure 1a, Figure S1a, b & c). The biochemical characterization and catalytic activity measurements were performed using pNPP as a substrate. […] Thus the D2 domain appears to have a regulatory role in both RPTPs- decreasing the catalytic activity in the case of DLAR while increasing the catalytic activity in the case of PTP99A (Figure 1b).

The target of another experiment is T2, DLAR D1HSS D2 (Drosophila melanogaster, UniProt P16621, C1670S).
T2 construct: DLAR 1448-2029; His tag (pET-15b or pET-22b); made in house; host or cells: E. coli BL21(DE3)
T2 sequence (P16621 1448-2029 C1670S): T1 sequence (P16621 1448-2029) with C223S
Briefly: Surface Plasmon Resonance peptide binding, DLAR D1HSS D2. The note with it: two-site model, read-out: ka. The method, then: The binding of phosphotyrosine peptides to the PTP domains was studied by Surface Plasmon Resonance on a Biacore-2000 instrument (BIAcore, AB). All experiments were conducted at 25°C. DLAR PTP domains were immobilized onto carboxylated dextran CM5 chips (BIAcore AB) using the standard amine coupling procedure as recommended by the manufacturer. Binding and kinetic assays were performed in 10 mM HEPES, pH 8.0, 150 mM NaCl, 10 mM DTT and 3 mM EDTA at a flow rate of 5 µL/min. The peptides were used at concentrations ranging from 50–700 µM. Dissociation was initiated by replacing the analyte with buffer. The association and dissociation curves were monitored for 600 sec. Sensograms were analyzed with BIA-evaluation software version 2 (BIAcore AB). Sensograms for DLAR D1D2, DLAR D1HSSD2 and DLAR D1D2HSS were fitted to two-site binding equations. DLAR D1 and DLAR D2 sensograms were fitted using a single-site binding model.

Usually Vmax stands for the rate approached at saturating substrate. As to `O=[N+]([O-])c1ccc(OP(=O)(O)O)cc1` [pNPP, para-Nitrophenylphosphate], the maximum rate (Vmax) at DLAR D1D2 (25 mM Citrate, Glycine and HEPES (CGH), pH 6.5, 100 mM NaCl, Michaelis-Menten fit) is 6.19 µmol/min/mg and 6.19 ± 0.14 µmol/min/mg. Also, on DLAR D1D2 (CGH buffer pH 6.5, 100 mM NaCl), the Kcat stood at 6.88 ± 0.16 s⁻¹ and the Kcat/Km is listed as 3.23 ± 0.09 x 10^3 sec^-1M^-1.

Consider `CC(C)C[C@H](NC(=O)[C@H](C)NC(=O)CNC(=O)[C@H](Cc1ccc(OP(=O)(O)O)cc1)NC(=O)[C@H](CC(=O)O)NC(=O)[C@@H]1CCCN1C(=O)[C@H](CCC(=O)O)NC(=O)[C@H](C)NC(=O)[C@@H](N)[C@@H](C)O)C(=O)N[C@@H](Cc1ccc(O)cc1)C(=O)N[C@@H](CCC(=O)O)C(=O)O` [Cuticle peptide] (H-TAEPD[pY]GALYE-OH), for which the kon on DLAR D1HSS D2 (pH 8, SPR Biacore-2000, 25°C, 10 mM HEPES pH 8.0, 150 mM NaCl, 10 mM DTT, 3 mM EDTA, peptides 50–700 µM, first binding site) was determined as 74.7 ± 2.41 M⁻¹ s⁻¹; on DLAR D1HSS D2 (pH 8, SPR, 25°C, pH 8.0, second binding site) it was 28800 ± 8e+06 M⁻¹ s⁻¹.
